Reference: paper PMC4805777 (International Journal for Parasitology: Drugs and Drug …, 2016)

Test system: T. cruzi (Strain H1)
Assay: T. cruzi in vivo assay, second study
Parameters: species or system Trypanosoma cruzi
Conditions: BALB/c mice, 100 mg/kg/day orally, 21 days (method: 20 days)

Q: With O=C(Cn1ccnc1[N+](=O)[O-])NCc1ccccc1 [Benznidazole] as the compound, how does the “parasitemia, in words” value read?
A: undetectable

Q: What about the “survival, in words” value (50-day study) of the same compound?
A: all the mice survived
